Consider one compound from patent publication US9677094B2, “Process of producing a fermentation product” (NOVOZYMES A/S, priority 2011, dated 2017).

The structures appear in SMILES notation.

For one assay, the system named is Fermentis Red Star yeast. Nature of the assay: Ethanol yield in fermentation (SSF) of liquefied corn mash, HPLC. In kind it is cell-based. The following applies: for EtOH: corn mash 32% DS. As to the method:
Pyridoxamine (Sigma #P9380) was evaluated for its ability to increase ethanol yields from laboratory-made corn mash when added at the time of liquefaction or at the beginning of fermentation.
Liquefied mashes were made using corn and backset obtained from a commercial ethanol plant in the Midwestern United States (Corn LP, Goldfield, Iowa). All mashes contained 32% Dry Solids (DS) and were liquefied at a pH of 5.8 for 120 minutes in a water bath at 85° C., using the alpha-amylase product Liquozyme SC DS (Novozymes) at a dose of 0.02% w/w of corn. Experimental mashes were treated with pyridoxamine at doses of 10 micrograms/g DS and 50 micrograms/g DS of pyridoxamine in 110 g mash. During liquefaction, the mashes were shaken vigorously every 2 minutes for the first 20 minutes and again at 30 minute intervals until the total liquefaction time equaled 2 hours. All mashes were then frozen overnight.
To each thawed mash, urea was added to a final concentration of 1000 ppm, and penicillin was added to a final concentration of 3 ppm. To test the effects of pyridoxamine in simultaneous saccharification and fermentation (SSF), separate aliquots of liquefied mash were dosed with 10 micrograms/g DS and 50 micrograms/g DS of pyridoxamine, respectively. The mashes were fermented as follows:
For fermentation, between 4 and 5 grams of each mash was added to 6 pre-weighed tubes per treatment. […] One hundred microliters of Fermentis Red Star yeast (5.5 g yeast in 100 mL tap water incubated at 32° C. for 30 minutes) was added to each tube, and the gluocoamylase product Spirizyme Ultra™ (Novozymes) was added to each tube to achieve a dose of 0.5 AGU/g DS.
After 24 hours, one replicate from each mash was sacrificed for HPLC analysis using 50 microliters of 40% v/v H2SO4. The tubes were centrifuged at 1500×g for 10 minutes, and the supernatants were filtered using Whatman syringe filters with 0.45 micron membranes, then diluted 1:5 for HPLC analysis. The remaining samples were sacrificed after 54 hours in the same manner but were subjected to HPLC analysis without dilution. Ethanol and oligosaccharide concentrations were measured by HPLC using an HPX-87H column (Bio-Rad) heated to 65° C. with a mobile phase of 5 mM sulfuric acid at a flow rate of 0.6 ml/min, with refractive index detection at 50° C.

The subject of assay [1] is initial stages of the Maillard reaction. The conditions noted are these: conjugates of beta-lactoglobulin with galactose and tagatose; cited from earlier work.
For assay [2], the system named is glycation reactions and the formation of advanced glycation end products (AGEs). The following applies: cited from earlier work.
Assay [3] relates to advanced lipoxidation end-products on protein. The following applies: during lipid peroxidation reactions; cited from earlier work.
Assay [4] relates to streptozotocin-induced diabetic and Zucker obese rats. The conditions noted are these: cited from earlier work.

For `Cc1ncc(CO)c(CN)c1O` [Pyridoxamine], the “ethanol yield versus control” value in the assay on Fermentis Red Star yeast (addition at the beginning of SSF (after liquefaction)) is listed as “did not result in an increase in ethanol yield”; in the assay on Fermentis Red Star yeast (addition at the start of corn mash liquefaction, three of the four results (both doses of 10 and one dose of 50 micrograms/g DS)), “statistically significant increase in ethanol yield”. Also, the EtOH came out at 12.19 w/v % in the assay with Fermentis Red Star yeast (experiment 1, dose 10 micrograms/g DS, addition point Liq (liquefaction)); 11.89 w/v % in the assay with Fermentis Red Star yeast (experiment 1, dose 10 micrograms/g DS, addition point SSF); 12.23 w/v % in the assay with Fermentis Red Star yeast (experiment 1, dose 50 micrograms/g DS, addition point Liq (liquefaction)); 11.79 w/v % in the assay on Fermentis Red Star yeast (experiment 1, dose 50 micrograms/g DS, addition point SSF); 12.01 w/v % with Fermentis Red Star yeast (experiment 2, dose 10 micrograms/g DS, addition point Liq (liquefaction)); 11.75 w/v % in the assay on Fermentis Red Star yeast (experiment 2, dose 10 micrograms/g DS, addition point SSF). Besides, the EtOH in the assay with Fermentis Red Star yeast (experiment 2, dose 50 micrograms/g DS, addition point Liq (liquefaction)) is reported as 11.86 w/v %; in the assay with Fermentis Red Star yeast (experiment 2, dose 50 micrograms/g DS, addition point SSF), 11.75 w/v %. Besides, in assay [1], the “effect on the initial stages of the Maillard reaction” value was “inhibitory effect”. Moreover, the “inhibition of glycation reactions and AGE formation” value in assay [2] is on record as “can inhibit”. Besides, the “formation of advanced lipoxidation end-products on protein” value in assay [3] was “inhibits”. For the same compound, the development of nephropathy entry in assay [4] (both animal models) is given as “protects against the development of nephropathy”. Further, the lipid-lowering effect entry in assay [4] (streptozotocin-induced diabetic and Zucker obese rats) is on record as “strong lipid-lowering effect”.
